Data as given in ChEMBL document CHEMBL4312021, “Discovery of [1,2,4]-triazolo [1,5-a]pyrimidine-7(4H)-one derivatives as positive modulators of GABAA1 receptor with potent anticonvulsant activity and low toxicity” (Eur J Med Chem, 2020).
Converted amounts (≈) assume the structure as drawn. The source made the active and inactive calls. The calls are words filed in the database; no cut-off is given here.

Legend:
Mus musculus [1] = assay: Anticonvulsant activity in Kunming mouse assessed as reduction in ScPTZ-induced seizure at 30 mg/kg, ip administered before 30 mins of ScPTZ stimulation; format: functional, organism-based
Mus musculus [2] = assay: Anticonvulsant activity in Kunming mouse assessed as reduction in ScPTZ-induced seizure at 300 mg/kg, ip administered before 30 mins of ScPTZ stimulation; format: functional, organism-based
Mus musculus [3] = assay: Anticonvulsant activity in Kunming mouse assessed as reduction in MES-induced seizure at 30 to 300 mg/kg, ip measured after 30 mins; format: functional, organism-based
Mus musculus [4] = assay: Anticonvulsant activity in Kunming mouse assessed as reduction in ScPTZ-induced seizure at 100 mg/kg, ip administered before 30 mins of ScPTZ stimulation; format: functional, organism-based
Cortical neurone = assay: Antiepileptic actvity in C57BL/6 mouse Primary cortical neuron assessed as reduction in 4-AP-induced excitability measured for 8 mins by Fluo-8/AM staining based FLIPR assay; format: functional, cell-based; conditions: C57BL/6, Cortical neurone
Mus musculus [5] = assay: Anticonvulsant activity in ip dosed CF-1 mouse assessed as reduction in ScPTZ-induced seizure administered before 30 mins of ScPTZ stimulation; format: functional; conditions: CF-1, ip, 0.5 h
[6] = biological target: T1, GABA-A receptor; alpha-1/beta-2/gamma-2 (Homo sapiens) (UniProt P14867+P47870+P18507); assay: Activation of recombinant human GABA receptor alpha1beta2gamma2 expressed in CHO cells and measured for 120 secs by FMP dye based FLIPR assay; format: cell-based
[7] = Neurotoxicity in ip dosed Kunming mouse assessed as reduction in equilibrium measured after 30 mins by rotarod test; format: toxicity, organism-based; conditions: in vivo
[8] = biological target: T1, GABA-A receptor; alpha-1/beta-2/gamma-2 (Homo sapiens); assay: (§1) Activation of recombinant human GABA receptor alpha1beta2gamma2 expressed in CHO cells in presence of GABA and measured for 120 secs by FMP dye based FLIPR assay; format: cell-based
[9] = biological target: T2, GABA-A receptor; alpha-1/beta-2/gamma-2 (Homo sapiens, UniProt P14867+P18507+P47870); assay: as §1; format: cell-based
T2 sequence (P14867 whole entry): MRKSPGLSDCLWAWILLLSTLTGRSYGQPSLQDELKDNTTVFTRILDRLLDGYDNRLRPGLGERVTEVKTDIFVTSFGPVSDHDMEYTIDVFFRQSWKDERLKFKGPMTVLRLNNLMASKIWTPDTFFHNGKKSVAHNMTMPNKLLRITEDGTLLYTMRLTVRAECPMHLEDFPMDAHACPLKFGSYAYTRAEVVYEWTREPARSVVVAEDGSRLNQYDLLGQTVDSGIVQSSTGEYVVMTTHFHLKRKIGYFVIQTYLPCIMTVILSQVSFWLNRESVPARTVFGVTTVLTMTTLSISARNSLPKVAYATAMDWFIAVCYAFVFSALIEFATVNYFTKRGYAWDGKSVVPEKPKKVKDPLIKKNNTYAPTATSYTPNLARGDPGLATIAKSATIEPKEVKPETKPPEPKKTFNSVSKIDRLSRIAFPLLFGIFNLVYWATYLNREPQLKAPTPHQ
T2 sequence (P47870 whole entry): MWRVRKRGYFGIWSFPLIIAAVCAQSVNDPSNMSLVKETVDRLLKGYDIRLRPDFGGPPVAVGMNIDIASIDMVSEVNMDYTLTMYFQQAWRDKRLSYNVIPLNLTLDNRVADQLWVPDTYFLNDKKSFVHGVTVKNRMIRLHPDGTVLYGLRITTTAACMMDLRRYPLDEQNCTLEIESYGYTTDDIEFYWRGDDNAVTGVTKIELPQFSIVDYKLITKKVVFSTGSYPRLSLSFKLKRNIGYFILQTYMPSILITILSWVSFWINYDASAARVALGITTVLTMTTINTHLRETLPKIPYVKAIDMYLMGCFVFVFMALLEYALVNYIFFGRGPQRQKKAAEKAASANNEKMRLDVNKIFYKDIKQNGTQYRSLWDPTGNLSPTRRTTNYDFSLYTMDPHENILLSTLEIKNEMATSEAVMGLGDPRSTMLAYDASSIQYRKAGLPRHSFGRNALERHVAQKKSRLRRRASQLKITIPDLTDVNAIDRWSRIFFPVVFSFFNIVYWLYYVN
T2 sequence (P18507 whole entry): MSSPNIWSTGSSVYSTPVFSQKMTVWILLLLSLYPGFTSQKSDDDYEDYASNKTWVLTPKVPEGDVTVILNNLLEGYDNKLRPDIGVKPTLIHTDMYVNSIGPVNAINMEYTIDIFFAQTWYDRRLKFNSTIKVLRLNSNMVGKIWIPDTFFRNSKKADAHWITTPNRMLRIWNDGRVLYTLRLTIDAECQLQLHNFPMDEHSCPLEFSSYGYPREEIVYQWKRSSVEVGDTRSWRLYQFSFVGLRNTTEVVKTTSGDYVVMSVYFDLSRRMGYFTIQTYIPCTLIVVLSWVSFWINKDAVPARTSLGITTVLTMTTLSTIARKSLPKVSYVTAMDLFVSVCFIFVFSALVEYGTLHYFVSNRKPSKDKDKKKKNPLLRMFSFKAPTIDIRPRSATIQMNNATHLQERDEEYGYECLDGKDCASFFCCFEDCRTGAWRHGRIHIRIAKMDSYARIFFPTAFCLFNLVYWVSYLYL

[10] = biological target: T2, GABA-A receptor; alpha-1/beta-2/gamma-2; assay: Positive allosteric modulation of recombinant human GABA receptor alpha1beta2gamma2 expressed in CHO cells at 30 uM in presence of GABA and measured for 120 secs by FMP dye based FLIPR assay (reference value: 0.25 +/- 0.03 uM); format: cell-based
Mus musculus [11] = species: Mus musculus; assay: Inhibition of sodium channel in C57BL/6 mouse Primary cortical neurons at 100 uM by manual patch clamp electrophysiology method
Mus musculus [12] = species: Mus musculus; assay: Inhibition of sodium channel in C57BL/6 mouse primary cortical neurons at 10 uM by manual patch clamp electrophysiology method
Mus musculus [13] = assay: Anticonvulsant activity in ip dosed Kunming mouse assessed as reduction in ScPTZ-induced seizure administered before 30 mins of ScPTZ stimulation; format: functional; conditions: 0.5 h
[14] = Protective index, ratio of TD50 for neurotoxicity in ip dosed Kunming mouse to ED50 for anticonvulsant activity in ip dosed Kunming mouse; format: toxicity, organism-based; conditions: in vivo, read-out: Ratio TD50/ED50
[15] = Solubility of compound in DMSO; format: physicochemical
[16] = Solubility of compound in water; format: physicochemical

Structure (SMILES)	Activity (Mus musculus [1])	Activity (Mus musculus [2])	Activity (Mus musculus [3])	Activity (Mus musculus [4])	IC50 (Cortical neurone) [nM]	further results
Cc1ccc(-c2nc3[nH]c(Cc4ccc(F)cc4)cc(=O)n3n2)cc1	inactive	inactive	inactive	inactive		
O=c1cc(Cc2ccccc2)[nH]c2nc(Cc3ccccc3)nn12	inactive	inactive	inactive	inactive		
CCCCCc1nc2[nH]c(-c3ccc(Cl)cc3)cc(=O)n2n1	Active	inactive	inactive	Active	8250	
CCCCc1nc2[nH]c(-c3ccc(Cl)cc3)cc(=O)n2n1	inactive	inactive	inactive	inactive		
O=C1NC(=O)C(c2ccccc2)(c2ccccc2)N1 [PHENYTOIN]						ED50 (Mus musculus [5]): > 300 mg/kg
Cc1ccc(Cc2nc3[nH]c(-c4ccc(Cl)cc4)cc(=O)n3n2)cc1	inactive	inactive	inactive	inactive	5440	
O=c1cc(Cc2ccc(Cl)cc2)[nH]c2nc(-c3ccccc3)nn12	Active	Active	inactive	Active	452	Activity [6]: inactive; TD50 at 0.5 h [7]: 548 mg/kg; Activity [8]: Dose-dependent effect; EC50 [9]: 3080 nM; EC50 [10]: 200 nM; inhibition (Mus musculus [11]): inactive; inhibition (Mus musculus [12]): inactive; ED50 (Mus musculus [13]): 31.8 mg/kg; selectivity ratio [14]: 17.2
Cc1ccc(Cc2cc(=O)n3nc(-c4ccccc4)nc3[nH]2)cc1	inactive	inactive	inactive	inactive		
CCCCCCc1nc2[nH]c(-c3ccccc3)cc(=O)n2n1	inactive	inactive	inactive	inactive		
CCC1(c2ccccc2)C(=O)NC(=O)NC1=O [PHENOBARBITAL]						ED50 (Mus musculus [5]): 13.2 mg/kg
O=c1cc(-c2ccc(Cl)cc2)[nH]c2nc(-c3ccccc3)nn12					2350	solubility [15]: 3000 µg/mL (≈ 9.29 mM); solubility [16]: 14.3 µg/mL (≈ 0.0443 mM)
O=c1cc(-c2ccccc2)[nH]c2nc(Cc3ccc(Cl)cc3)nn12	Active	Active	inactive	Active	1830	TD50 at 0.5 h [7]: 211 mg/kg; ED50 (Mus musculus [13]): 61.1 mg/kg; selectivity ratio [14]: 3.45
Cc1ccc(Cc2nc3[nH]c(-c4ccccc4)cc(=O)n3n2)cc1	Active	Active	inactive	Active	1150	TD50 at 0.5 h [7]: 281 mg/kg; ED50 (Mus musculus [13]): 65.8 mg/kg; selectivity ratio [14]: 4.26
CCCCCc1nc2[nH]c(-c3ccccc3)cc(=O)n2n1	inactive	inactive	inactive	inactive		
Cc1ccc(-c2nc3[nH]c(-c4ccccc4)cc(=O)n3n2)cc1					3210	solubility [15]: 3000 µg/mL (≈ 9.92 mM); solubility [16]: 14.3 µg/mL (≈ 0.0473 mM)
CCCCCCCc1nc2[nH]c(-c3ccccc3)cc(=O)n2n1	inactive	inactive	inactive	inactive		

Structure (SMILES)	Activity (Mus musculus [1])	Activity (Mus musculus [2])	Activity (Mus musculus [3])	Activity (Mus musculus [4])	IC50 (Cortical neurone) [nM]	further results
CCCCCCc1nc2[nH]c(-c3ccc(Cl)cc3)cc(=O)n2n1	Active	Active	inactive	Active	8720	
Cc1ccc(Cc2nc3[nH]c(Cc4ccccc4)cc(=O)n3n2)cc1	Active	Active	inactive	Active	2470	
CCCC(CCC)C(=O)O [VALPROIC ACID]						ED50 (Mus musculus [5]): 149 mg/kg
O=c1cc(-c2ccccc2)[nH]c2nc(Cc3ccc(F)cc3)nn12	Active	Active	inactive	Active	2520	TD50 at 0.5 h [7]: 261 mg/kg; ED50 (Mus musculus [13]): 71.6 mg/kg; selectivity ratio [14]: 3.67
O=c1cc(Cc2ccccc2)[nH]c2nc(Cc3ccc(F)cc3)nn12	inactive	inactive	inactive	inactive		
CCCCCCCc1nc2[nH]c(-c3ccc(Cl)cc3)cc(=O)n2n1	inactive	inactive	inactive	inactive		
O=c1cc(Cc2ccc(Cl)cc2)[nH]c2nc(Cc3ccc(F)cc3)nn12	inactive	Active	inactive	Active	3650	
Cc1ccc(-c2nc3[nH]c(Cc4ccc(Cl)cc4)cc(=O)n3n2)cc1	inactive	Active	inactive	inactive		
CCCCc1nc2[nH]c(-c3ccccc3)cc(=O)n2n1	inactive	inactive	inactive	inactive		
O=c1cc(Cc2ccc(Cl)cc2)[nH]c2nc(Cc3ccccc3)nn12	inactive	Active	inactive	inactive		
NC(=O)N1c2ccccc2C=Cc2ccccc21 [CARBAMAZEPINE]						ED50 (Mus musculus [5]): > 100 mg/kg
O=c1cc(-c2ccccc2)[nH]c2nc(Cc3ccccc3)nn12	Active	Active	inactive	Active	1310	
O=c1cc(Cc2ccccc2)[nH]c2nc(Cc3ccc(Cl)cc3)nn12	inactive	inactive	inactive	Active	4280	
Cc1ccc(Cc2cc(=O)n3nc(-c4ccc(C)cc4)nc3[nH]2)cc1	inactive	inactive	inactive	inactive		
O=c1cc(-c2ccc(Cl)cc2)[nH]c2nc(Cc3ccccc3)nn12	inactive	inactive	inactive	inactive		
Cc1ccc(Cc2cc(=O)n3nc(Cc4ccccc4)nc3[nH]2)cc1	inactive	inactive	inactive	inactive		
